Holding throughout (type): in vivo, mouse
Series [1] has as its system serum IgG and anti dsDNA IgG. Briefly: Serum IgG and anti-dsDNA IgG ELISA. The note with it: SLE mice serum. An excerpt:
(§1) ELISA assays were used to detect for the presence of various cytokines in mouse serum isolated from vehicle or drug-treated animals or from medium supernatant isolated from tissue cell cultures as described above. In addition, ELISA was also used to detect total IgG and dsDNA IgG from mouse serum and for the assay to detect urine albumin and creatinine levels. ELISA detection kits for mouse cytokines IL-6 and TNFα were purchased from eBioscience, mouse cytokines IL-17A, IFNγ, and human IFNγ were purchased from Biolegend, kits for the albumin and creatinine were purchased from Exocell, and kits for the serum IgG and anti-dsDNA IgG were purchased from Alpha Diagnostic (San Antonio, Tex.). ELISAs were all performed according to the manufacturer's instructions.
Serum IgG and anti-dsDNA IgG: 100 μl of 1:50000× diluted serum for IgG and 100 μl of 1:20000× diluted serum for dsDNA IgG were used and loaded onto a precoated 96-well plate in duplicate for 1 hour at room temperature. […] The OD of the wells was determined using a microplate reader set at a wavelength of 450 nm.
In this Example, the effect of the SHP2 inhibitor, L97M74, on the onset of SLE disease progression was evaluated by measuring the levels of auto antibodies in SLE inhibitor-treated versus vehicle-treated mice through detection anti-histone antibodies and anti-IgG by ELISA.

A further series concerns IFNγ, TNFα, IL17, IL6. Briefly: Cytokine ELISA. The note with it: SLE-prone mice.
Description: as §1
Cytokine analyses: In brief, capture antibodies for each cytokine were precoated on 96-well plates overnight at 4° C., then 100 μl of 5× diluted serum or 300× diluted supernatant medium was loaded on the precoated wells in duplicate and left overnight at 4° C. (with the exception of the human IFNγ assay isolated from supernatant medium, where the dilution used was 1:30). As per the protocol instructions, enzyme-antibody conjugate, TMB substrate and stopping buffer were added sequentially. The colorimetric analysis, as measured by optical density (OD) within each well, was determined using a microplate reader set at a wavelength of 450 nm. The cytokine concentrations were calculated and measured against a standard curve for each cytokine.
An ELISA was conducted to detect concentrations of IFNγ, TNFα, IL17, and IL6 in T cells derived from spleen.
For orientation: In an ELISA, binding on a coated surface is turned into a signal by an enzyme label.

The test system of another series is SLE-prone mice hearts. Briefly: Echocardiography. The note with it: vs vehicle-treated SLE mice. The protocol: Transthoracic echocardiography was conducted on non-anesthetized animals as described previously in Marin et al., J Clin Invest. 2011; 121:1026-1043, with a 13-MHz probe (Vivid 7, GE Medical Systems, Boston, Mass.) or VisualSonics Vevo 770 high-frequency ultrasound rodent imaging system (VisualSonics, Toronto, Ontario). GE Medical Systems or VisualSonics Vevo 770 software was used for data acquisition and subsequent analysis. Hearts were imaged in the 2-dimensional parasternal short-axis view, and an M-mode echocardiogram of the midventricular region was recorded at the level of the papillary muscles. Calculations of cardiac anatomic and functional parameters were carried out as described in Marin et al., J Clin Invest. 2011; 121:1026-1043.

The test system of the next series is SLE-prone MRL/lpr mice. The series is described as follows: SLE disease progression in MRL/lpr mice (skin, spleen, kidney, thymus, proteinuria, histology, body weight). As for the experimental part: Briefly, female MRL/MpJ-fas lpr (MRL/lpr), MRL/Mpj and C57BL/6J mice were purchased from the Jackson Laboratory (Bar Harbor, Me.). For experiments, mice within each group were ip injected with either vehicle (DMSO) or the SHP2 inhibitor (7.5 mg/kg/per day). Testing continued for a period of 6 weeks, starting at 11 weeks of age to 17 weeks. Body weight was measured daily and treatment dosage was adjusted accordingly. At the end of the treatment period, mice were sacrificed with CO2 exsanguination and SLE targeted organs were removed. For each mouse, spleen, kidney, and heart weight were calculated. In addition, total animal body weight and tibia length were measured. Peripheral blood/serum was also collected for use in the cytokine assays described below.
Harvested organs (kidney, spleen, and heart) to be used to assess morphometry and histochemistry were flushed with PBS, perfusion fixed in Bouin's reagent, and paraffin embedded. Sections (5 μm) were stained with Hematoxylin and Eosin (H&E), Periodic acid—Schiff stain (PAS), Masson-Trichrome, or reticulin staining at the Harvard Medical School Rodent Histopathology Core and scored using an unbiased approach, in which histology scores of 1 (normal) to 5 (most severe pathology) were designated to tissue sections which were only numerically labeled and in no particular order (by Dr. Roderick Bronson, director of the Rodent Histopathology Core, Harvard Medical School). Numerical sections were later decoded, marked for their designated score, and statistically analyzed. Images of the tissue sections were obtained and quantified on a Keyence BZ-9000 Microscope (Keyence Corporation, Itasca, Ill.).
To determine kidney function, urine was collected before mice were sacrificed. Albumin and creatinine in the urine were measured using colorimetric assays according to the manufacturer's instructions (Albuwell M; The creatinine companion, Exocell), as described below. The kidney function was calculated as ratio of albumin to creatinine levels.
Albumin and creatinine levels: For the albumin assay, collected mouse urine was diluted at 1:5200× and 50 μl was loaded onto an albumin precoated 96-well plate, followed by primary incubation, secondary incubation and colorimetric determination. For the creatinine assay, the urine was diluted 20× and loaded onto a 96-well plate, and picrate working solution and acid reagent were added sequentially according to protocol. Absorbance was assayed using a plate reader set at a wavelength of 495 nm.
To determine whether inhibition of SHP2 activity affected SLE disease progression, each of the SLE target tissues (i.e., skin, kidney, spleen) was tested in both treated and untreated SLE-prone mice. Particularly, tissues were tested as: WT treated with inhibitor, WT treated with DMSO (vehicle), MRL/mpJ treated with inhibitor, MRL/mpf treated with DMSO (vehicle), MRL/lpr treated with inhibitor, and MRL/lpr treated with DMSO (vehicle).

A further series concerns MRL/lpr mice. Briefly: Longevity study. The note with it: SLE-prone MRL/lpr mice, 7.5 mg/kg/day ip from 11 weeks of age; listed as SHP2 inhibitor. The protocol: Female MRL/lpr mice were used for a survival/longevity curve analysis. Mice either ip injected with vehicle (DMSO) or SHP2 inhibitor (7.5 mg/kg/each day) were followed beginning at 11 weeks of age to assess tolerance to the inhibitor and longevity/survival curve. The testing was terminated when the last mouse in the control group died, at 26 weeks.

The mark [2] stands for this setting: MRL/lpr mice, treatment for 6 weeks.

Entries after “also recorded” stand apart in the source; their conditions may differ.

On to `Cn1c(-c2cccc(NC(=O)C(=O)Nc3ccc(-c4ccsc4)cc3)c2)c(I)c2cc(C(=O)O)c(O)cc21` [11a-1], for which, in series [1], the “levels of IgG” value is “not reduced” and the “levels of double-stranded DNA (anti dsDNA IgG)” value was “not reduced”. Besides, in the series on IFNγ, TNFα, IL17, IL6, the IFNγ entry is reported as “significant decreases”, the IL6 entry is listed as “No effects”, the IL17 entry is “No effects” and the TNFα result is “No effects”. In the series on SLE-prone mice hearts, the cardiac functional parameters result is listed as “significantly improved functional parameters”, the “left ventricular chamber dimension” value is recorded as “decreased chamber” and the posterior wall thickness result is given as “increased posterior wall measurements”. Besides, in the series on SLE-prone MRL/lpr mice (7.5 mg/kg/day), the “cytotoxic effects during the treatment period” value was “no obvious cytotoxic effects”. Further, in the series with SLE-prone MRL/lpr mice (MRL/lpr mice), the “SLE-related disease phenotype in the kidney (histology: glomerulonephritis, fibrosis, immune cell infiltration)” value is “prevented the development of this SLE-related disease phenotype in the kidney” and the “unbiased histopathological scoring of kidney” value is listed as “quantifiably prevented the development of SLE-related disease phenotype”. Also, in the series on SLE-prone MRL/lpr mice (setting [2]), the kidney size result is given as “normalized the kidney to a size”; the “splenomegaly (spleen size and weight)” value is given as “reduced splenomegaly”. The “PAS staining of kidney tissue” value with SLE-prone MRL/lpr mice (SLE kidneys) is “decreased inflammatory infiltration in the tissue, smaller glomeruli, decreased fibrosis, and decreased numbers of mesangial cells surrounding the glomerulus”. The proteinuria entry in the series on SLE-prone MRL/lpr mice (SLE mice vs vehicle-treated) was “significant reduction in proteinuria”. The thymus size entry in the series with SLE-prone MRL/lpr mice (SLE-prone mice) was “decreased thymus size”. In addition, the skin lesions/inflammation entry in the series with SLE-prone MRL/lpr mice (SLE-prone mice, 7.5 mg/kg/day) is given as “reduced the skin lesions/inflammation”. Also, the “body weight during treatment period” value in the series with SLE-prone MRL/lpr mice (mice, 7.5 mg/kg/day ip) was “no change in body weight”. The “lifespan / survival (Kaplan-Meier)” value in the series with MRL/lpr mice is listed as “significantly increased lifespan; also recorded: increased longevity/survival effect”.
